Laboratory results published in patent US20100055169A1, “CATIONIC LIPIDS AND USES THEREOF” (ABBOTT LABORATORIES, priority 2008, published 2010).

Assay: RiboGreen assay of siRNA encapsulation efficiency, in vitro formulations of Lipid-Based Particles
Type: physicochemical
Conditions: in vitro formulation b: Cationic lipid/PEG-cholesterol/DSPC/Chol 45/10/15/30 wt %, lipid:siRNA 25:1
Description: The mixing solution of cationic lipids, cholesterol, non-cationic lipids and PEG-lipids was prepared in ethanol (total concentration at 10 mg/mL). siSTABLE (purchased from ThermoFisher) (sense-5′ GGGGAAAGCUGGCAAGAUUUU-3′SEQ ID NO. 1, antisense-5′-AAUCUUGCCAGCUUUCCCCUU-3′ SEQ ID NO: 2) % stock solution was prepared in 10 mg/mL of solution by dissolving 10 mg siRNA in 1 mL of RNAse-free UltraPure Water. The calculated amount of siRNA solution was added to 1 mL of citrate buffer (pH 4.0, 20 mM), to provide an siRNA concentration of 0.2 mg/mL, and warmed to 60 C. The calculated amount of lipid solution was warmed to 60 C, transferred to a 0.5 mL syringe with 28½ gauge needle, and injected into the citrate buffer with stirring at 60 C. After 3 minutes, 3 mL of PBS solution at room temperature (pH 7.4) was added into the lipid mixture with stirring. The Lipid-Based Particle solution was cooled to room temperature.
The siRNA concentrations were measured using Quanti-iT RiboGreen RNA reagent (Molecular Probes, (R11490)). Vesicle sizes were characterized by dynamic light scattering with a DynaPro™ Plate Reader (Wyatt Technology) in 96-well half-area UV plate (Coring) after diluting the formulation sample (20 μL) in phosphate buffered saline (80 μL) at a pH of about 7-8. A 1% agarose gel-based assay was used for analyzing nuclease degradation and protection. Encapsulation efficiency (EE) was calculated using data obtained from a RiboGreen assay.
RNA concentration and encapsulation efficiency were determined using a Quant-iT® Ribogreen RNA reagent and kit available from Invitrogen. The siRNA was released from the Lipid-Based Particle using one of the following reagents: ethanol, Triton X-100, or phenol/chloroform. The siRNA concentration is quantified using fluorescent reading at 480 nm/520 nm.

Molecule	% Encapsulation Efficiency
CCCCC/C=C\C/C=C\CCCCCCCCOCC(CCN1CCCC1C)OCCCCCCCC/C=C\C/C=C\CCCCC (stereo not drawn) [Example 50, 1-{3,4-bis[(9Z,12Z)-octadeca-9,12-dienyloxy]butyl}-2-methylpyrrolidine]	99%
CCCCC/C=C\C/C=C\CCCCCCCCOCC(CCN1CCC1)OCCCCCCCC/C=C\C/C=C\CCCCC (stereo not drawn) [Example 49, 1-{3,4-bis[(9Z,12Z)-octadeca-9,12-dienyloxy]butyl}azetidine]	99%
CCCCC/C=C/C/C=C/CCCCCCCCOCC(CCN1CCCC1)OCCCCCCCC/C=C/C/C=C/CCCCC (stereo not drawn) [Example 41, 1-{3,4-bis[(9E,12E)-octadeca-9,12-dienyloxy]butyl}pyrrolidine]	99%
CCCCC/C=C\C/C=C\CCCCCCCCOC[C@H](CCNC(=O)CCN(CC)CC)OCCCCCCCC/C=C\C/C=C\CCCCC [Example 43, N^1-{(3S)-3,4-bis[(9Z,12Z)-octadeca-9,12-dienyloxy]butyl}-N^3,N^3-diethyl-beta-alaninamide]	96.5%
CCCCC/C=C\C/C=C\CCCCCCCCOCC(CCN1CCC(n2ccnc2)C1)OCCCCCCCC/C=C\C/C=C\CCCCC (stereo not drawn) [Example 46, 1-(1-{3,4-bis[(9Z,12Z)-octadeca-9,12-dienyloxy]butyl}pyrrolidin-3-yl)-1H-imidazole]	98%
CCCCCC/C=C/CCCCCCCCOCC(CCN1CCCC1)OCCCCCCCC/C=C/CCCCCC (stereo not drawn) [Example 39, 1-{3,4-bis[(9E)-hexadec-9-enyloxy]butyl}pyrrolidine]	99%
CCCCC/C=C\C/C=C\CCCCCCCCOCC(CCOCCN1CC1)OCCCCCCCC/C=C\C/C=C\CCCCC (stereo not drawn) [Example 27, 1-(2-{3,4-bis[(9Z,12Z)-octadeca-9,12-dienyloxy]butoxy}ethyl)aziridine]	97%
CCCCC/C=C\C/C=C\CCCCCCCCOCC(CCNCCCN(C)C)OCCCCCCCC/C=C\C/C=C\CCCCC (stereo not drawn) [Example 48, N-{3,4-bis[(9Z,12Z)-octadeca-9,12-dienyloxy]butyl}-N′,N′-dimethylpropane-1,3-diamine]	99%
CCCCC/C=C\C/C=C\CCCCCCCCOCC(CCN1C(C)CCC1C)OCCCCCCCC/C=C\C/C=C\CCCCC (stereo not drawn) [Example 51, 1-{3,4-bis[(9Z,12Z)-octadeca-9,12-dienyloxy]butyl}-2,5-dimethylpyrrolidine]	99%
CCCCC/C=C\C/C=C\C/C=C\C/C=C\CCCC(=O)OCC(CCN1CCCC1)OC(=O)CCC/C=C\C/C=C\C/C=C\C/C=C\CCCCC (stereo not drawn) [Example 35, 1-{[(5Z,8Z,11Z,14Z)-icosa-5,8,11,14-tetraenoyloxy]methyl}-3-pyrrolidin-1-ylpropyl(5Z,8Z,11Z,14Z)-icosa-5,8,11,14-tetraenoate]	83.5%
CCCCCCCC/C=C\CCCCCCCCOCC(CCN1CCCC1)OCCCCCCCC/C=C\CCCCCCCC (stereo not drawn) [Example 34, 1-{3,4-bis[(9Z)-octadec-9-enyloxy]butyl}pyrrolidine]	99%
CCCCC/C=C\C/C=C\CCCCCCCCOC[C@H](CCOC(=O)NCCCN1CCCC1)OCCCCCCCC/C=C\C/C=C\CCCCC [Example 36, (3S)-3,4-bis[(9Z,12Z)-octadeca-9,12-dienyloxy]butyl 3-pyrrolidin-1-ylpropylcarbamate]	99%
1-[3,4-bis(hexadecyloxy)butyl]pyrrolidine [Example 38]	99%
CCCCC/C=C\C/C=C\CCCCCCCCOCC(CCNCCCn1ccnc1)OCCCCCCCC/C=C\C/C=C\CCCCC (stereo not drawn) [Example 44, N-{3,4-bis[(9Z,12Z)-octadeca-9,12-dienyloxy]butyl}-N-[3-(1H-imidazol-1-yl)propyl]amine]	98%
CC/C=C\C/C=C\C/C=C\CCCCCCCCOCC(CCN1CCCC1)OCCCCCCCC/C=C\C/C=C\C/C=C\CC (stereo not drawn) [Example 42, 1-{3,4-bis[(9Z,12Z,15Z)-octadeca-9,12,15-trienyloxy]butyl}pyrrolidine]	98%
CCCCC/C=C\C/C=C\CCCCCCCCOCC(CCNCCCN1CCCC1)OCCCCCCCC/C=C\C/C=C\CCCCC (stereo not drawn) [Example 47, N-{3,4-bis[(9Z,12Z)-octadeca-9,12-dienyloxy]butyl}-N-(3-pyrrolidin-1-ylpropyl)amine]	99%
CCCCCCCCCCCCCCCCCCOCC(CCN1CCCC1)OCCCCCCCCCCCCCCCCCC (stereo not drawn) [Example 37, 1-[3,4-bis(octadecyloxy)butyl]pyrrolidine]	98.5%
CCCCC/C=C\C/C=C\CCCCCCCCOCC(CCOCCN(CC)CC)OCCCCCCCC/C=C\C/C=C\CCCCC (stereo not drawn) [Example 25, N-(2-{3,4-bis[(9Z,12Z)-octadeca-9,12-dienyloxy]butoxy}ethyl)-N,N-diethylamine]	96.1%
CCCCCCCC/C=C/CCCCCCCCOCC(CCN1CCCC1)OCCCCCCCC/C=C/CCCCCCCC (stereo not drawn) [Example 40, 1-{3,4-bis[(9E)-octadec-9-enyloxy]butyl}pyrrolidine]	97%
CCCCC/C=C\C/C=C\CCCCCCCCC1(CCCCCCC/C=C\C/C=C\CCCCC)OCC(CCN(CC)CC)O1 (stereo not drawn) [Example 32, N,N-diethyl-N-(2-{2-[(8Z,11Z)-heptadeca-8,11-dienyl]-2-[(9Z,12Z)-octadeca-9,12-dienyl]-1,3-dioxolan-4-yl}ethyl)amine]	98.6%
CCCCC/C=C\C/C=C\CCCCCCCCOCC(CCOCCN(C)C)OCCCCCCCC/C=C\C/C=C\CCCCC (stereo not drawn) [Example 29, N-(2-{3,4-bis[(9Z,12Z)-octadeca-9,12-dienyloxy]butoxy}ethyl)-N,N-dimethylamine]	96.4%
CCCCCCCC/C=C\CCCCCCCC(=O)OCC(CCN1CCCC1)OC(=O)CCCCCCC/C=C\CCCCCCCC (stereo not drawn) [Example 33, 1-{[(9Z)-octadec-9-enoyloxy]methyl}-3-pyrrolidin-1-ylpropyl (9Z)-octadec-9-enoate]	99%
CCCCC/C=C\C/C=C\CCCCCCCCOCC(CCOCCC1CCCN1C)OCCCCCCCC/C=C\C/C=C\CCCCC (stereo not drawn) [Example 26, 2-(2-{3,4-bis[(9Z,12Z)-octadeca-9,12-dienyloxy]butoxy}ethyl)-1-methylpyrrolidine]	99.9%
CCCCC/C=C\C/C=C\CCCCCCCCOCC(CCN(C)CCCN(C)C)OCCCCCCCC/C=C\C/C=C\CCCCC (stereo not drawn) [Example 45, N-{3,4-bis[(9Z,12Z)-octadeca-9,12-dienyloxy]butyl}-N,N′,N′-trimethylpropane-1,3-diamine]	99%
